Test results from ChEMBL document CHEMBL1201862, “PubChem BioAssay data set” (2004).
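Method: 48-hour compound exposure of cells in 96-well plates, five concentrations, linear interpolation of endpoints. Here, GI50 denotes the concentration required for 50% inhibition of growth.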 The source made the active and inactive calls. Rule as the data show it: active = GI50 up to about 1.1 µM and inactive = higher.

Tests used:
Assay in all cases: NCI tumour cell line growth inhibition, 48 h
786-0 = test system: 786-0
A498 = test system: A498
ACHN = test system: ACHN
CCRF-CEM = test system: CCRF-CEM
COLO 205 = test system: COLO 205
DLD-1 = test system: DLD-1
DMS-114 = test system: DMS-114
HCT-116 = test system: HCT-116
HCT-15 = test system: HCT-15
HL-60 = test system: HL-60
HOP-18 = test system: HOP-18
HOP-62 = test system: HOP-62
HOP-92 = test system: HOP-92
HT-29 = test system: HT-29
IGROV-1 = test system: IGROV-1
K562 = test system: K562
KM-20L2 = test system: KM-20L2
KM12 = test system: KM12
LOX IMVI = test system: LOX IMVI
LXFL 529 = test system: LXFL 529
M14 = test system: M14
M19-MEL = test system: M19-MEL
MOLT-4 = test system: MOLT-4
Malme-3M = test system: Malme-3M
NCI-H226 = test system: NCI-H226
NCI-H23 = test system: NCI-H23
NCI-H460 = test system: NCI-H460
NCI-H522 = test system: NCI-H522
OVCAR-3 = test system: OVCAR-3
OVCAR-4 = test system: OVCAR-4
OVCAR-5 = test system: OVCAR-5
OVCAR-8 = test system: OVCAR-8
RPMI-8226 = test system: RPMI-8226
RXF 631 = test system: RXF 631
SF-268 = test system: SF-268
SF-295 = test system: SF-295
SF-539 = test system: SF-539
SK-MEL-28 = test system: SK-MEL-28
SK-MEL-2 = test system: SK-MEL-2
SK-OV-3 = test system: SK-OV-3
SN12C = test system: SN12C
SNB-19 = test system: SNB-19
SNB-75 = test system: SNB-75
SNB-78 = test system: SNB-78
SR = test system: SR
SW-620 = test system: SW-620
TK-10 = test system: TK-10
U-251 = test system: U-251
UACC-257 = test system: UACC-257
UACC-62 = test system: UACC-62
UO-31 = test system: UO-31
A549 = test system: A549
DMS-273 = test system: DMS-273
HCC 2998 = test system: HCC 2998
SK-MEL-5 = test system: SK-MEL-5
CAKI-1 = test system: CAKI-1

## CN(C)CCCNc1ccc2ncn3c4ccccc4c(=O)c1c23
786-0
  GI50: 4.52 µM (inactive)
A498
  GI50: > 10 µM (inactive)
ACHN
  GI50: 4.81 µM (inactive)
CCRF-CEM
  GI50: 4.39 µM (inactive)
COLO 205
  GI50: 2.49 µM (inactive)
DLD-1
  GI50: 4.94 µM (inactive)
DMS-114
  GI50: 10.5 µM (inactive)
HCT-116
  GI50: 3.48 µM (inactive)
HCT-15
  GI50: 8.53 µM
HL-60
  GI50: 6.41 µM (inactive)
HOP-18
  GI50: 5.73 µM (inactive)
HOP-62
  GI50: 33.6 µM (inactive)
HOP-92
  GI50: 5.9 µM (inactive)
HT-29
  GI50: 4.88 µM (inactive)
IGROV-1
  GI50: 7.66 µM (inactive)
K562
  GI50: 3.77 µM (inactive)
KM-20L2
  GI50: 7.41 µM (inactive)
KM12
  GI50: 5.87 µM (inactive)
LOX IMVI
  GI50: 3.51 µM (inactive)
LXFL 529
  GI50: 8.55 µM (inactive)
M14
  GI50: 9.66 µM (inactive)
M19-MEL
  GI50: 12.1 µM (inactive)
MOLT-4
  GI50: 2.91 µM (inactive)
Malme-3M
  GI50: 13.7 µM (inactive)
NCI-H226
  GI50: 7.21 µM (inactive)
NCI-H23
  GI50: 12.3 µM (inactive)
NCI-H460
  GI50: 3.43 µM (inactive)
NCI-H522
  GI50: 6.17 µM (inactive)
OVCAR-3
  GI50: 16 µM (inactive)
OVCAR-4
  GI50: 21.9 µM (inactive)
OVCAR-5
  GI50: 10.7 µM (inactive)
OVCAR-8
  GI50: 4.9 µM (inactive)
RPMI-8226
  GI50: 4.71 µM (inactive)
RXF 631
  GI50: 4.7 µM (inactive)
SF-268
  GI50: 7.6 µM (inactive)
SF-295
  GI50: 6.3 µM (inactive)
SF-539
  GI50: 8.73 µM (inactive)
SK-MEL-28
  GI50: 31.6 µM (inactive)
SK-MEL-2
  GI50: 13.6 µM (inactive)
SK-OV-3
  GI50: 8.59 µM (inactive)
SN12C
  GI50: 11.5 µM (inactive)
SNB-19
  GI50: 20.3 µM (inactive)
SNB-75
  GI50: 10.5 µM (inactive)
SNB-78
  GI50: 14.2 µM (inactive)
SR
  GI50: 2.94 µM (inactive)
SW-620
  GI50: 4.71 µM (inactive)
TK-10
  GI50: 14.8 µM (inactive)
U-251
  GI50: 11.4 µM (inactive)
UACC-257
  GI50: 14.6 µM (inactive)
UACC-62
  GI50: 12.8 µM (inactive)
UO-31
  GI50: 9.27 µM (inactive)

## O=[N+]([O-])c1cccc(C2=NOC(C3CCCCC3)C2)c1 (stereo unspecified)
786-0
  GI50: > 100 µM (inactive)
A498
  GI50: > 100 µM (inactive)
A549
  GI50: > 100 µM (inactive)
ACHN
  GI50: > 100 µM (inactive)
CCRF-CEM
  GI50: > 100 µM (inactive)
COLO 205
  GI50: > 100 µM (inactive)
DLD-1
  GI50: > 100 µM (inactive)
DMS-114
  GI50: > 100 µM (inactive)
DMS-273
  GI50: > 100 µM (inactive)
HCC 2998
  GI50: > 100 µM (inactive)
HCT-116
  GI50: > 100 µM (inactive)
HCT-15
  GI50: > 100 µM
HL-60
  GI50: > 100 µM (inactive)
HOP-18
  GI50: > 100 µM (inactive)
HOP-62
  GI50: > 100 µM (inactive)
HOP-92
  GI50: > 100 µM (inactive)
HT-29
  GI50: 82 µM (inactive)
IGROV-1
  GI50: > 100 µM (inactive)
K562
  GI50: > 100 µM (inactive)
KM12
  GI50: > 100 µM (inactive)
LXFL 529
  GI50: > 100 µM (inactive)
M14
  GI50: > 100 µM (inactive)
M19-MEL
  GI50: > 100 µM (inactive)
MOLT-4
  GI50: > 100 µM (inactive)
Malme-3M
  GI50: > 100 µM (inactive)
NCI-H226
  GI50: > 100 µM (inactive)
NCI-H23
  GI50: > 100 µM (inactive)
NCI-H460
  GI50: > 100 µM (inactive)
NCI-H522
  GI50: > 100 µM (inactive)
OVCAR-3
  GI50: > 100 µM (inactive)
OVCAR-4
  GI50: > 100 µM (inactive)
OVCAR-5
  GI50: 92 µM (inactive)
OVCAR-8
  GI50: > 100 µM (inactive)
RXF 631
  GI50: > 100 µM (inactive)
SF-268
  GI50: > 100 µM (inactive)
SF-295
  GI50: 94.6 µM (inactive)
SF-539
  GI50: > 100 µM (inactive)
SK-MEL-28
  GI50: > 100 µM (inactive)
SK-MEL-2
  GI50: > 100 µM (inactive)
SK-MEL-5
  GI50: > 100 µM (inactive)
SK-OV-3
  GI50: > 100 µM (inactive)
SN12C
  GI50: > 100 µM (inactive)
SNB-75
  GI50: > 100 µM (inactive)
SNB-78
  GI50: > 100 µM (inactive)
SW-620
  GI50: > 100 µM (inactive)
TK-10
  GI50: > 100 µM (inactive)
U-251
  GI50: > 100 µM (inactive)
UACC-257
  GI50: > 100 µM (inactive)
UACC-62
  GI50: > 100 µM (inactive)
UO-31
  GI50: > 100 µM (inactive)

## CCCCCCCCOCC(COC(=O)CCCCCCC)OC(=O)CCCCCCC (stereo unspecified)
786-0
  GI50: > 100 µM (inactive)
A498
  GI50: > 100 µM (inactive)
A549
  GI50: > 100 µM (inactive)
ACHN
  GI50: > 100 µM (inactive)
CAKI-1
  GI50: > 100 µM (inactive)
CCRF-CEM
  GI50: 57 µM (inactive)
COLO 205
  GI50: > 100 µM (inactive)
DLD-1
  GI50: > 100 µM (inactive)
DMS-114
  GI50: > 100 µM (inactive)
DMS-273
  GI50: > 100 µM (inactive)
HCC 2998
  GI50: > 100 µM (inactive)
HCT-116
  GI50: > 100 µM (inactive)
HCT-15
  GI50: > 100 µM
HL-60
  GI50: > 100 µM (inactive)
HOP-18
  GI50: > 100 µM (inactive)
HOP-62
  GI50: > 100 µM (inactive)
HOP-92
  GI50: 51.5 µM (inactive)
HT-29
  GI50: > 100 µM (inactive)
IGROV-1
  GI50: > 100 µM (inactive)
K562
  GI50: > 100 µM (inactive)
KM-20L2
  GI50: > 100 µM (inactive)
LOX IMVI
  GI50: > 100 µM (inactive)
LXFL 529
  GI50: > 100 µM (inactive)
M14
  GI50: > 100 µM (inactive)
M19-MEL
  GI50: > 100 µM (inactive)
MOLT-4
  GI50: > 100 µM (inactive)
Malme-3M
  GI50: > 100 µM (inactive)
NCI-H226
  GI50: > 100 µM (inactive)
NCI-H23
  GI50: > 100 µM (inactive)
NCI-H460
  GI50: > 100 µM (inactive)
OVCAR-3
  GI50: > 100 µM (inactive)
OVCAR-4
  GI50: > 100 µM (inactive)
OVCAR-5
  GI50: > 100 µM (inactive)
OVCAR-8
  GI50: > 100 µM (inactive)
RPMI-8226
  GI50: > 100 µM (inactive)
RXF 631
  GI50: > 100 µM (inactive)
SF-268
  GI50: > 100 µM (inactive)
SF-295
  GI50: > 100 µM (inactive)
SK-MEL-28
  GI50: > 100 µM (inactive)
SK-MEL-5
  GI50: > 100 µM (inactive)
SK-OV-3
  GI50: > 100 µM (inactive)
SN12C
  GI50: > 100 µM (inactive)
SNB-19
  GI50: > 100 µM (inactive)
SR
  GI50: 53 µM (inactive)
SW-620
  GI50: > 100 µM (inactive)
TK-10
  GI50: > 100 µM (inactive)
U-251
  GI50: > 100 µM (inactive)
UACC-257
  GI50: > 100 µM (inactive)
UACC-62
  GI50: > 100 µM (inactive)
UO-31
  GI50: > 100 µM (inactive)
